Reference: ChEMBL document CHEMBL3997847, “Development of a novel near-infrared fluorescent theranostic combretastain A-4 analogue, YK-5-252, to target triple negative breast cancer” (Bioorg Med Chem, 2017)
Calls of active or inactive are those of the source. The rule behind the calls is not given here.

Assays:
[1] = Retention time of the compound at 200 uM in presence of 50 mM GSH by HPLC analysis
MDA-MB-231 = experiment: Growth inhibition of human MDA-MB-231 cells after 72 hrs by MTT assay; format: cell-based; details: MDA-MB-231, 72 h
Homo sapiens = species: Homo sapiens; experiment: Inhibition of beta-tubulin polymerization in human MDA-MB-231 cells at 50 nM after 1 hr by NucBlue staining based immunofluorescence microscopic assay; format: cell-based

Compound	Retention time [1]	GI50 (MDA-MB-231)	inhibition (Homo sapiens)
N#CC(C#N)=C1C=C(/C=C/c2ccc(N)cc2)Oc2ccccc21	8.6 min	–	–
COc1ccc(/C=C\c2cc(OC)c(OC)c(OC)c2)cc1O [COMBRETASTATIN A4]	6.8 min	2.81 nM	Active
